The test has as its target Tyrosine-protein phosphatase non-receptor type 22 (Homo sapiens) (UniProt Q9Y2R2). The experiment in a line: LYP phosphatase inhibitors, confirmation, biochemical, DiFMUP fluorescence, retest and dose response (AID 1253). The settings on record: recombinant LYP; for inhibition: at 10 µM, stronger effect = higher value.

Calls of active or inactive are those of the source.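 How the source made its calls: active means IC50 under 10 µM in the follow-up dose response; inactive means IC50 10 µM or more, or under 40% single-dose inhibition.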

One may read the IC50 as the point on the concentration scale where inhibition reaches its midpoint.

Chain of Tyrosine-protein phosphatase non-receptor type 22 (Homo sapiens) (Q9Y2R2 whole entry, looked up): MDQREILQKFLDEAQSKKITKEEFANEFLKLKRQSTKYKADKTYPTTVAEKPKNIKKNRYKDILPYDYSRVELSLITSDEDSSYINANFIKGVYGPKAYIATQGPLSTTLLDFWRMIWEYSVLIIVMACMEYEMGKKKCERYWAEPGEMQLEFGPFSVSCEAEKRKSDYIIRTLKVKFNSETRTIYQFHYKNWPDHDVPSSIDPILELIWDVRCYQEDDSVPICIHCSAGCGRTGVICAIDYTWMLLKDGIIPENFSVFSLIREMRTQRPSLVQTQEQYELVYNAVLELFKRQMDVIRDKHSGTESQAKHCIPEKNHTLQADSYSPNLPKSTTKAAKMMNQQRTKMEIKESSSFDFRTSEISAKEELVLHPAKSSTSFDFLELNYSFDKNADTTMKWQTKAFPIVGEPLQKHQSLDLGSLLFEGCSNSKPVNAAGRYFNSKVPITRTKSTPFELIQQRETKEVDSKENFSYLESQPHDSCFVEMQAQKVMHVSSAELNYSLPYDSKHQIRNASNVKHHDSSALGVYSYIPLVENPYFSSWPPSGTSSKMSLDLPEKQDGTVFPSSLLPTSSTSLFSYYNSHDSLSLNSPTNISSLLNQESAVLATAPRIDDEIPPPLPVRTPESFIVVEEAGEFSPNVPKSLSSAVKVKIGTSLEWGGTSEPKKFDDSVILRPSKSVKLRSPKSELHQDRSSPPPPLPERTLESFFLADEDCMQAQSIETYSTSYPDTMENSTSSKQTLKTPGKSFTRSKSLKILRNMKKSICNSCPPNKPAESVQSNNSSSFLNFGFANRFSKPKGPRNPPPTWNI

Take `COCCn1c(Cc2ccccc2)nnc1SCc1nc2ccccc2c(=O)[nH]1`: the inhibition result was “inactive”.

For the compound `O=C1NC(=O)C(=Cc2cn(CCOc3ccc4c(c3)OCO4)c3ccccc23)C(=O)N1`, the inhibition entry was “inactive”.

Consider `CCCn1c(Nc2ccc(Cl)cc2)nc2ccccc21`, for which the inhibition entry is “inactive”.

Turning to `CC(C)(C)c1cc(NCCCn2ccnc2)n2ncc(-c3ccc(Cl)cc3)c2n1`, the inhibition entry is “inactive”.

For `Cc1ccc(C)c(OCC(=O)N/N=C/c2c(C)nn(-c3ccccc3)c2Cl)c1`, the inhibition entry is “inactive”.

As for `O=C(NC(C(=O)N/N=C/c1ccccc1)c1n[nH]c(=O)c2ccccc12)c1ccccc1` (stereo unspecified), the inhibition entry was “inactive”.

Turning to `Cn1c(=O)cc(SCC(=O)NCCN2CCN(c3ccccc3F)CC2)c2cc(Cl)ccc21`, the inhibition result is “inactive”.

In the case of `Cc1ccc(-c2nc3ccccc3[nH]2)cc1NC(=O)c1sc2ccccc2c1Cl`, the inhibition entry was “inactive”.

Take `O=C(c1ccc(Cl)cc1)c1cnc(-c2ccc(Cl)cc2)s1`: the inhibition result was “inactive”.

Regarding `CC(/C=N/n1c(C2CCCCC2)n[nH]c1=S)=C\c1ccccc1`, the inhibition result is “inactive”.

Regarding `O=C(NCc1ccco1)c1ccc2nc3sc4c(c3c(=O)n2c1)CCCC4`, the inhibition entry is “inactive”.

For `CCCC(=O)Nc1ccc2c(c1)nc(CCNC(=O)c1ccccc1)n2C`, the inhibition entry is “inactive”.

Turning to `Cc1cc(SCC(=O)N/N=C/c2ccc(O)c(O)c2O)c(C)cc1Br`, the inhibition result was “inactive”.

On to `CCOc1ccc(-c2csc(N)c2C(=O)OC)cc1`, for which the inhibition result was “inactive”.

With `Nc1c(C(=O)NCc2ccco2)c2nc3ccccc3nc2n1CCc1ccccc1F`, the inhibition result was “inactive”.

Take `CNC(=S)NNC(=O)c1cccn(Cc2ccc(Cl)c(Cl)c2)c1=O`: the inhibition result was “inactive”.

For `CNC(=S)NNC(=O)c1cccn(Cc2ccc(Cl)cc2Cl)c1=O`, the inhibition entry was “inactive”.

`O=S(=O)(Nc1nc(-c2sccc2Cl)cs1)c1cc(Cl)ccc1Cl`: the inhibition result is “inactive”.

Turning to `Cc1ccc2nc(NC(=O)c3cccc(-c4cc5ccccc5oc4=O)c3)sc2c1`, the inhibition entry is “inactive”.

On to `S=c1[nH]nc(COc2ccccc2)n1/N=C/C(Cl)=C/c1ccccc1`, for which the inhibition result is “inactive”.

Turning to `O=C(c1cccs1)c1no[n+]([O-])c1C(=O)c1cccs1`, the half-maximal inhibitory concentration (IC50) was 1660 nM.

With `Cc1nc(S/C(=C/c2ccc(-c3cccc(Cl)c3)o2)C(=O)O)n[nH]1`, the inhibition entry was “inactive”.

In the case of `Cc1ccc(-c2nn(CC(=O)NCc3cc(-c4nn(C)c(=O)c5ccccc45)ccc3C)c(=O)c3ccccc23)cc1`, the inhibition result was “inactive”.

`COc1ccc2cc(CN(Cc3ccco3)C(c3nnnn3C3CCCCC3)C(C)C)c(=O)[nH]c2c1` (stereo unspecified): the inhibition result is “inactive”.

Turning to `CCOC(=O)c1cn(-c2nc(-c3ccc(Cl)c(Cl)c3)cs2)c2c(F)c(N3CCOCC3)c(F)cc2c1=O`, the inhibition entry is “inactive”.

Consider `O=C(Nc1nc(-c2ccccn2)cs1)c1ncc(Cl)c(Cl)c1Cl`, for which the inhibition result was “inactive”.

Take `Cc1ccc(Nc2cc(C)nn2-c2nc(C)cc(=O)[nH]2)cc1`: the inhibition entry was “inactive”.

As for `COc1cc(OC)cc(C(=O)Nc2ccccc2C(=O)N2CCCC2)c1`, the inhibition entry was “inactive”.

On to `Cc1cc2c(cc1C)N(C(=O)CSC1=NCCS1)C(C)(C)c1ssc(=S)c1-2`, for which the inhibition entry is “inactive”.

As for `O=C(Nc1ccc(-c2nc3ccc(NC(=O)c4cccs4)cc3[nH]2)cc1)c1cccs1`, the inhibition entry is “inactive”.

For `Cc1cccc(N(C(=O)c2ccc(Cl)cc2)C2CS(=O)(=O)CC2OC(=O)c2ccc(Cl)cc2)c1` (stereo unspecified), the inhibition entry was “inactive”.

Turning to `COc1cccc(-c2nnc(NC(=O)c3ccc(S(=O)(=O)N(CC(C)C)CC(C)C)cc3)o2)c1`, the inhibition entry was “inactive”.

Turning to `CC(=O)Nc1cccc(NC(=O)CCn2cnc3cc(C)c(C)cc32)c1`, the inhibition entry was “inactive”.

As for `CC(C(=O)O)N1C(=O)/C(=C/C=C/c2ccco2)SC1=S` (stereo unspecified), the IC50 was 3700 nM.

In the case of `CCC(C)n1c(C)nc2c(c1=O)c1nc3ccccc3nc1n2CCC1=CCCCC1` (stereo unspecified), the inhibition entry is “inactive”.

For `O=C(CSc1nnc(-c2ccc(Cl)s2)o1)N1CCCc2ccccc21`, the inhibition entry is “inactive”.

Take `COCCCNC(=O)c1cccn2c(=O)c3cc4ccccc4cc3nc12`: the inhibition entry is “inactive”.

With `CN1/C(=C\C=C\C2=[N+](C)c3ccc4ccccc4c3C2(C)C)C(C)(C)c2ccccc21`, the inhibition entry was “inactive”.

As to `O=[N+]([O-])c1ccc(N2CCN(S(=O)(=O)c3ccc(Cl)cc3)CC2)cc1NCc1cccnc1`, the inhibition entry is “inactive”.

In the case of `O=C(NNC(=O)c1cc2cc3ccccc3nc2s1)c1cccc(Cl)c1`, the inhibition entry was “inactive”.

On to `Cc1ccc(Cn2c(=N)c(C(=O)NCc3ccco3)cc3c(=O)n4ccccc4nc32)cc1`, for which the inhibition result was “inactive”.

Consider `Nc1nnc(SCC(=O)Nc2ccc(S(=O)(=O)N3CCOCC3)cc2)s1`, for which the inhibition result was “inactive”.

With `O=C(Cn1c(-c2ccc(Cl)cc2)noc1=O)N1CCN(c2ccccc2F)CC1`, the inhibition entry is “inactive”.

With `Nn1cnnc1N/N=C/c1cc(Br)cc(Br)c1O`, the inhibition entry was “inactive”.

For `O=C(Nc1nnc(COc2ccc(Cl)cc2)s1)c1ccc([N+](=O)[O-])cc1`, the inhibition entry is “inactive”.

As to `C(=C/c1ccnc2nc(SC/C=C/c3ccccc3)nn12)/c1ccccc1`, the inhibition result is “inactive”.

For the compound `CC(=O)Nc1ccc(NC(=O)c2ccccc2CC[N+](=O)[O-])cc1`, the inhibition result was “inactive”.

Take `O=C(N/N=C/C=C/c1ccccc1)c1cc2c(ccc3ccccc32)o1`: the inhibition result was “inactive”.

Take `O=C(Cn1c2ccccc2c(=O)c2ccccc21)N/N=C/c1cc([N+](=O)[O-])ccc1N1CCCCCC1`: the inhibition entry is “inactive”.

Take `CCNC(=O)COc1cc(C)c(Cl)c(C)c1`: the inhibition result is “inactive”.

`c1ccc(-c2cc(-c3nnc4n3N=C(c3ccc5ccccc5c3)CS4)[nH]n2)cc1`: the inhibition entry is “inactive”.

With `O=c1c(/C=N/Nc2ccccc2)c(Sc2nnnn2-c2ccccc2)nc2ccccn12`, the inhibition result was “inactive”.

Regarding `Cc1ccc(-c2nnc(CSc3nnc(COc4cccc5ccccc45)n3-c3ccccc3)o2)cc1`, the inhibition result was “inactive”.

Take `CCCCCCCCC/C(=N\O)c1ccccn1`: the inhibition entry was “inactive”.

Turning to `O=C(Cn1cnc2ccccc21)Nc1ccc(C(=O)O)cc1`, the inhibition result is “inactive”.

On to `COc1ccc2cc3cc(C(=O)N4CCN(Cc5ccc6c(c5)OCO6)CC4)oc3nc2c1`, for which the inhibition result is “inactive”.

As to `Cc1ccc(CSC2=Nc3ccccc3C3=NC(CC(=O)NCc4ccco4)C(=O)N23)cc1` (stereo unspecified), the inhibition entry was “inactive”.

In the case of `Cc1ccc2nc(NC(=S)NC(=O)c3cccs3)sc2c1`, the inhibition entry was “inactive”.

Turning to `O=C(COc1ccccc1C(=O)N/N=C\c1ccc(O)c(O)c1)N/N=C/c1ccc(O)c(O)c1`, the inhibition result is “inactive”.

In the case of `c1ccc(-c2ccc(C3=Nn4c(nnc4-c4cc(-c5ccccc5)n[nH]4)SC3)cc2)cc1`, the inhibition entry was “inactive”.

As to `N#Cc1nc(-c2ccc(OCc3ccc(Cl)cc3)cc2)oc1NCCCn1ccnc1`, the inhibition entry is “inactive”.

As to `Cc1ccc(-n2nc3c4c(cccc4c2=O)-c2ccccc2-3)cc1`, the inhibition result is “inactive”.

Turning to `CCOC(=O)c1c(-n2c(C)cc(C=C3C(=O)NC(=S)NC3=O)c2C)sc2c1CCCC2`, the inhibition result was “inactive”.

On to `COc1ccc(NC(=O)CSc2ccc3c4c(cccc24)C(=O)c2ccccc2-3)cc1`, for which the inhibition result is “inactive”.

With `CCN(CC(=O)NC(=O)NC1CCCCC1)Cc1nc2ccccc2c(=O)[nH]1`, the inhibition result is “inactive”.

In the case of `Brc1ccc2nc(CSc3ncn[nH]3)cn2c1`, the inhibition result is “inactive”.

On to `C=CCNC(=S)NNC(=O)c1cccn(Cc2ccc(Cl)cc2)c1=O`, for which the inhibition entry is “inactive”.

With `COc1ccc(C(=O)c2sc3nc(-c4ccccc4)ccc3c2N)cc1OC`, the inhibition result is “inactive”.

As for `COc1ccccc1OCc1nnc(SCC(=O)NCc2ccco2)n1Cc1ccco1`, the inhibition result was “inactive”.

On to `Cc1ccccc1Cn1ccc(NC(=O)CCSc2nc(-c3ccco3)cc(C(F)(F)F)n2)n1`, for which the inhibition result was “inactive”.

`COc1ccc(C2C(=O)N(C3CCCCC3)CC(=O)N2C2CCCCC2)cc1` (stereo unspecified): the inhibition entry was “inactive”.

Regarding `O=C(OCC1OC(n2cnc3c(N(C(=O)c4ccccc4)C(=O)c4ccccc4)ncnc32)C(O)C1F)c1ccccc1` (stereo unspecified), the inhibition entry was “inactive”.

On to `Cc1nn(-c2ccccc2)c(Cl)c1/C=N/Nc1ccc(S(=O)(=O)Nc2ccccc2C(=O)O)cc1[N+](=O)[O-]`, for which the inhibition result is “inactive”.

For `O=C(Nc1ccc2oc(-c3ccc4ccccc4c3)nc2c1)c1ccc2c(c1)OCCO2`, the inhibition entry is “inactive”.

Turning to `O=C(N/N=C/c1ccc2ccccc2c1)c1ccc(COc2ccc3c(c2)CCC3)o1`, the inhibition result is “inactive”.

Take `C=CCNC(=S)NNC(=O)c1cccn(Cc2ccc(Cl)cc2Cl)c1=O`: the inhibition result was “inactive”.

On to `CCOC(=O)c1ccc(NC(=O)CSc2nc(NC(=O)c3ccccc3)c3c(C)c(C)oc3n2)cc1`, for which the inhibition result is “inactive”.

As to `CN(C)c1ccc(/C=N/N=C2/NC(=O)/C(=C/c3ccc([N+](=O)[O-])cc3)S2)cc1`, the inhibition entry was “inactive”.

With `CC(=O)NC1CC2CCCC(C1)N2C(=O)Nc1ccccc1` (stereo unspecified), the inhibition result is “inactive”.

Turning to `Cc1ccc2oc3nc(C)c(C(=O)Nc4cccc(C(F)(F)F)c4)cc3c(=O)c2c1`, the inhibition result is “inactive”.

For the compound `COc1ccc(NC(=O)C2CCCO2)cc1Cl` (stereo unspecified), the inhibition entry was “inactive”.

`CCn1nc(C(=O)OCC(=O)c2cc(C)n(Cc3cccs3)c2C)c2ccccc2c1=O`: the inhibition entry is “inactive”.

With `Cc1nnc(NC(=O)Nc2ccc(Cl)c(Cl)c2)s1`, the inhibition result was “inactive”.

As to `CCCSc1nc(C)c(-c2csc(C(C#N)=C3CCCC3)n2)cc1C#N`, the inhibition result was “inactive”.

Regarding `NC(=O)C1CCN(C(c2ccccc2Cl)c2nnnn2CC2CCCO2)CC1` (stereo unspecified), the inhibition result is “inactive”.

For the compound `Cc1cc(C(C)(C)C)cc(C)c1COC(=O)C1CCC(=O)N1` (stereo unspecified), the inhibition result is “inactive”.

These data come from PubChem BioAssay AID1253 (Columbia University Molecular Screening Center, 2008).
